Results: US20050080037A1, “Methods for treating acute and overuse sprain and strain using hyaluronic acid” (priority 2003, published 2005)

System: patients with first or second degree lateral ankle sprain
Test: Efficacy of HA on ankle sprain following periarticular administration (clinical study 1: HA; study 2: celecoxib or naproxen)
Type: in vivo, human
Details: for Percentage increase in Patient's Global Assessment (improved by one or more grades) / Mean Patient's Satisfaction Assessment (10 point scale) / Mean Physician's Satisfaction Assessment (10 point scale): study 2, oral BID for 7 days; for Mean VAS Weight-bearing (100 mm): study 2, oral BID for 7 days (celecoxib 200 mg, naproxen 500 mg)
Experimental: The study was conducted in accordance with good clinical practice and in compliance with the requirement of the International Conference on Harmonization and Declaration of Helsinki. On Day 1 (within 48 hours of the injury), the patients were examined to assess whether they meet all the inclusion criteria and none of the exclusion criteria after signing the informed consent. The inclusion criteria were: 18 years and older, first or second degree lateral ankle […] within 48 hours of administration of study drug, reported moderate (45-60 mm) to severe (>60 mm) ankle pain on full weight bearing on the Patient's Assessment of Ankle Pain using a 100 mm Visual Analogue Scale (VAS). This scale was available for the duration of the clinical follow-up. Patients with bilateral ankle […] injury, third-degree […], or previous ankle […] within 6 months were excluded. Also excluded were patients who had recently used anti-inflammatory drugs, muscle relaxants, or certain classes of psychotropic medications that could confound the results. In addition, patients with sensitivity or allergy to NSAIDs or sulfonamides as well as patients with a history of serious GI, renal, or hepatic disease were excluded. Patients with other rheumatic diseases or a history of drug or alcohol abuse were also excluded. After enrollment, patients received periarticular injections of HA (study 1) or an inhibitor of cyclooxygenase-2 or a NSAID (study 2). […] Eight to ten mg of HA (0.8-1.0 ml of HA) was injected, without anesthetic (study 1). Oral treatments with an inhibitor of cyclooxygenase-2, celecoxib 200 mg BID, or with a NSAID, naproxen 500 mg BID, were done for 7 days (study 2). Clinical assessments were performed at baseline, and then before treatment on Day 4 and Day 8 (end of study). […] In Table 1, 7 patients received HA. In Table 2, 199 patients received celecoxib and 198 patients received naproxen.

Row | SMILES | Percentage increase in Patient's Global Assessment (improved by one or more grades) (at day 4) | Mean VAS Weight-bearing (100 mm) (at day 4) | Mean Patient's Satisfaction Assessment (10 point scale) (at day 8) | Mean Physician's Satisfaction Assessment (10 point scale) (at day 8) | Percentage increase in Patient's Global Assessment (improved by one or more grades) (at day 8) | Mean VAS Weight-bearing (100 mm) (at day 8)
1 | Cc1ccc(-c2cc(C(F)(F)F)nn2-c2ccc(S(N)(=O)=O)cc2)cc1 [Celecoxib, celecoxib] | 71% | 31.9 mm | 8.8 | 8.7 | 89% | 15.0 mm
2 | COc1ccc2cc([C@H](C)C(=O)O)ccc2c1 [Naproxen, naproxen] | 72% | 29.0 mm | 8.7 | 8.6 | 90% | 15.3 mm
